Test results published in patent US20240301409A1, “Chemically Modified Small Activating RNA” (RACTIGEN THERAPEUTICS, priority 2021, published 2024).
Entries after “also recorded” stand apart in the source; their conditions may differ. Like-named read-outs stand apart in the source and are kept apart here. Oligonucleotides are written 5' to 3', each unit as a sugar letter and its base; * is a phosphorothioate linkage, no mark a phosphodiester; rarer units and linkages stand in square brackets, end groups in braces. Plain capitals give the bases only. d = 2'-deoxy (DNA); m = 2'-O-methyl; r = 2'-OH (RNA); f = 2'-fluoro

How the values were obtained:
Ku-7-LG cells = assay: Cellular proliferation assay (CCK8) in Ku-7-LG cells; format: cell-based, human; settings: 10 nM, 72 hours
Protocol: Ku-7-LG cells were transfected with the indicated saRNA at 10 nM for 3 days. […] The closer the luciferase value is to the control group, the lower the probability of off-target effects of saRNA is. Control and dsCon2 were blank transfection and double-stranded scramble RNA transfection, respectively. The value of the ordinate represents the mean±SD of two repeated treatments.
(§1) After the transfection, the number of viable cells was detected with a CCK8 kit, and plotted as the percentage of the blank control treatment group. […] A transfection sample without oligonucleotide served as a blank control. Non-specific duplex (dsCon) transfected sample served as a negative control. Data are presented as mean±SD of at least two independent experiments. The values below the dashed line indicate stronger growth inhibitory activity compared to duplex Rag1-40 without chemical modification.
(§2) Human bladder cancer cells Ku-7-LG (ATCC), J82 (ATCC) and T24 (ATCC) were cultured in McCoy medium (Gibco) comprising 10% calf serum (Sigma-Aldrich) and 1% penicillin/Streptomycin (Gibco). Cells were cultured at 37° C. under 5% CO2. Ku-7-LG, J82 and T24 cells were plated into 12-well plates at 10×10^4 cells per well, transfected with the small RNA at a concentration of 10 nM (unless otherwise specified) for three days, using RNAiMax (Invitrogen, Carlsbad, CA) according to the manufacturer's instructions. Two replicate wells were set for each treatment.
(§3) Cells were plated in a 96-well plate at 2˜4×10^3 cells/well, cultured overnight, and transfected with the oligonucleotide duplexes. Three days after transfection, CCK8 (Dojindo) was used to detect cellular proliferation following manufacturer's instructions. The experimental steps are briefly described as follows: 10 μL of CCK8 solution was added to each well, incubated at 37° C. for 1 hour, and then the absorbance at 450 nm was measured using a microplate reader.
(§4) It is known that p21 induction by saRNA is that a variety of tumor suppressor factors such as p21 protein suppress the proliferation of cancer cells. To evaluate the effect of chemically modified saRNAs on the function of cancer cells, cells (Ku-7-LG and T24) were transfected with 10 nM unmodified and modified saRNAs for 72 hours, and the cellular proliferation was determined by CCK8. […] Furthermore, there was a correlation between RNA activating activity (FIGS. 7A-7B) and suppression of cellular proliferation activity (FIGS. 8A-8B). Strong p21 activators are usually also strong cytostatics.

RNase A = molecular target: T1, RNase A (Bos taurus, UniProt P61823)
T1 sequence (P61823 27-150): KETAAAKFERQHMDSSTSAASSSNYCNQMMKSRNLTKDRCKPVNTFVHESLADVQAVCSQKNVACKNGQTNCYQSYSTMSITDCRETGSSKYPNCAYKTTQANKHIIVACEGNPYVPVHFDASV
Protocol: The duplexes obtained at each time point above were each added to 1 μL of 10× loading buffer, and then frozen in liquid nitrogen. After incubation, all samples were detected for the double-stranded RNA by 4% agarose gel electrophoresis, and the content of each duplex was analyzed by Image J software.
The duplexes obtained at each time point indicated above were each added to 1 μL of 10× loading buffer, and then frozen in liquid nitrogen. After incubation, all samples were detected for the double-stranded RNA by 4% agarose gel electrophoresis, and the content of each duplex was analyzed by Image J software.
saRNA (1.5 μL, 10 μM) was incubated at a final concentration of 0.02 mg/mL in PBS in the presence of RNase A (Amresco, OH, USA) at 37° C. for different durations. At the end of the incubation, the mixture was snap frozen in liquid nitrogen to stop nuclease activity. Samples were analyzed on a 4% agarose gel and examined for duplex degradation.
All chemically modified duplexes (Rag1-40-1 to Rag1-40-32) were incubated with 0.02 μg/L of RNase A for different durations (0 to 96 hours). At the end of the incubation, the size and amount of duplexes were detected by agarose gel electrophoresis.

[1] = system: Rag1-40 target sequence in the 3′ UTR of firefly luciferase, COS-1 cells
Protocol: (§13) A 26 bp fragment comprising the target site of Rag1-40 was cloned in the antisense orientation into the 3′ UTR region of the firefly luciferase gene in a pmirGLO dual luciferase vector. Vector plasmids were co-transfected with the indicated saRNAs into COS-1 cells. Cells were lysed 48 hours after transfection, and the resulting lysates were assessed for luciferase activity. Data represent mean±SD of at least two independent experiments. Dashed line represents comparisons to blank control (top dashed line) and Rag1-40 (bottom dashed line). Values close to the top dashed line indicate no off-target effect.
(§14) A 26 bp fragment comprising the Rag1-40 target sequence was cloned in the antisense orientation into a multiple cloning site (MCS) of the 3′ untranslated region of firefly luciferase of the pmirGLO dual luciferase vector (Promega, Fitchburg, WI), to obtain pOff-Target plasmid. Following E. coli transformation and overnight incubation, plasmids for each construct were prepared by standard method. Each plasmid was transfected into COS-1 monkey kidney epithelial cells using Lipofectamine 3000 (Invitrogen, Carlsbad, CA). Subsequently, saRNA was transfected using RNAiMAX. After 24 hours of incubation, COS-1 cells were lysed with 1× lysis buffer, and luciferase activity was measured using dual luciferase reporter gene assay system (Promega, WI, USA) following manufacturer's instructions.
(§15) To assess the off-target effects of unmodified and modified saRNAs, a sequence complementary to the sense oligonucleotide strand of Rag1-40 was cloned into the 3′UTR region of the luciferase gene in a pmirGLO dual luciferase vector. The vector plasmid was co-transfected with the saRNA into COS-1 cells. Cells were lysed 48 hours after transfection and the resulting lysates were assessed for luciferase activity.

T24 cells = assay: Cellular proliferation assay (CCK8) in T24 cells, alone and combined with Mitomycin C or valrubicin; format: cell-based, human; settings: T24 cells, 10 nM, 72 hours, CCK8
Source text: as §1
T24 cells were transfected with RAG1-40-31 at concentrations of 0.1, 0.5, 1, 5, 10, 25 and 50 nM for 24 hours, and then Mitomycin C was added at concentrations of 1, 10, 100, 1000 and 10000 nM. The combined treatment was carried out with concentrations in pairs. After treatment, the cellular proliferation was detected by CCK8 kit. FIGS. 16A-16B show the relative proliferation proportion of T24 cells after the combined treatment with chemically modified saRNA RAG1-40-31 and valrubicin. […] Control and DMSO are the blank transfection control and the solvent for dilution control, respectively.
T24 cells were transfected with RAG1-40-31 at concentrations of 0.1, 0.5, 1, 5, 10, 25 and 50 nM for 24 hours, and then valrubicin at concentrations of 1, 10, 100, 1000 and 10000 nM was added. The combined treatment was carried out with concentrations in pairs. After treatment, the cellular proliferation was detected by CCK8 kit.
as §2, §3, §4

p21 gene [2] = assay: p21 mRNA expression by RT-qPCR in T24 cells; format: cell-based, human; settings: 10 nM, 72 hours, compared with unmodified Rag1-40 unless worded otherwise
Protocol: (§5) Ku-7-LG and T24 cells were transfected with the indicated saRNA at a final concentration of 10 nM for 3 days. After transfection, the RNA was extracted with the Qiagen RNeasy kit. After reverse transcription, the ABI 7500 fast real-time PCR system was used for qPCR amplification. The GAPDH gene was amplified as an internal reference. […] Dashed line indicates duplex Rag1-40 with no chemical modification in comparison, and the values above the line indicate stronger activity. The control was blank transfection without oligonucleotide. dsCon2 is transfected with a double-stranded scramble RNA. The value of the ordinate represents the mean±SD of 2 repeated treatments.
(§6) The control and dsCon2 were blank transfection and scramble dsRNA transfection, respectively. The values in the ordinate represent the mean±SD of 2 repeated treatments.
as §2
(§7) After transfection, the medium was discarded and to each well 500 μl cell lysate was added and incubated at room temperature for 5 minutes. RNA was extracted with the Qiagen RNeasy kit, and after reverse transcription, qPCR analysis was performed on the ABI 7500 Fast Real-time PCR system (Applied Biosystems). Each sample was amplified in 3 replicate wells.
(§8) The PCR reaction conditions are: 95° C. for 30 seconds, 95° C. for 5 seconds, 60° C. for 30 seconds, and 40 cycles of amplification. The GAPDH gene was amplified as an internal reference at the same time. p21 was amplified with the p21F1/R1 primer pair, and the specific sequences of the amplification primers are shown in Table 1.
(§9) In order to calculate the expression value (Erel) of p21 (target gene) of a saRNA transfection sample relative to the control treatment, Formula 1 is used to input the Ct values of the target gene and the internal reference gene for calculation.
(§10) wherein, CtTm is the Ct value of the target gene from the control treatment sample; CtTs is the Ct value of the target gene from the saRNA treated sample; CtRm is the Ct value of the internal reference gene from the control treatment sample; and CtRs is the Ct value of the internal reference gene from the saRNA treated sample.
(§11) The main purpose of introducing chemical modifications to regulatory oligonucleotides of a gene is to improve their pharmaceutical properties, including enhancing in vivo stability and mitigating off-target effects (e.g., sequence-dependent targeting of unrelated genes, sequence-dependent or independent immune stimulation), while maintaining their gene regulatory capacity (gene knockdown or activation). To assess the effect of chemical modification on the RNAa activity of saRNA on the p21 gene, 10 nM unmodified (Rag1-40) and modified (Rag1-40-1 to Rag1-40-34) duplexes were transfected into Ku-7-LG and T24 cells, respectively. After 72 hours, the mRNA expression level of p21 was assessed by RT-qPCR. All duplexes induced p21 mRNA expression in all […] at least double that of the control.
(§12) In order to further evaluate the expression level of p21 mRNA after the different durations of treatment by the chemically modified saRNA duplexes, two saRNAs (RAG1-40-31 and RAG1-40-53) were randomly selected from the above chemically modified saRNA duplexes for detection. RAG1-40-31 and RAG1-40-53 were transfected into Ku-7-LG and T24 cells at a final concentration of 10 nM, for 1, 2, 3, 4, 7 and 9 days, respectively. Each treatment was set up in duplicate. […]

p21 gene [3] = assay: p21 mRNA expression by RT-qPCR in Ku-7-LG cells; format: cell-based, human; settings: 10 nM, 72 hours, compared with unmodified Rag1-40 unless worded otherwise
Protocol: as §5, §6, §2, §7, §8, §9, §10, §11, §12

[4] = system: Rag1-40 target sequence in the 3′ UTR of firefly luciferase, COS-1 cells; assay: Analysis of off-target effects (pOff-Target dual luciferase reporter in COS-1 cells); settings: lysed 48 hours after transfection, luciferase activity
Protocol: as §13, §14, §15

| Substance | suppression of cellular proliferation, in words (Ku-7-LG cells) | degradation of duplex at 96 hours (RNase A) | off-target effect compared to unmodified Rag1-40, in words [1] | suppression of cellular proliferation, in words (T24 cells) | RNA activation activity (p21 mRNA), in words (p21 gene [2]) | RNA activation activity (p21 mRNA), in words (p21 gene [3]) | off-target effect compared to unmodified Rag1-40, in words [4] |
| --- | --- | --- | --- | --- | --- | --- | --- |
| Rag1-40-11: saRNA duplex: sense fCfCAACUCAUUCUCCAAGfUfC (SEQ ID NO 14); antisense fUmAfCfUfUmGmGmAmGmAmAfUmGmAmGfUfUmGmGfCmA (SEQ ID NO 8) (sense fCfCrArArCrUrCrArUrUrCrUrCrCrArArGfUfC) | negatively affects proliferation suppression activity | little or no signs of degradation | completely inhibited | negatively affects proliferation suppression activity | reduced activity |  |  |
| Rag1-40-16: saRNA duplex: sense fCfCAACUCAUUCUCCAAGfUfC (SEQ ID NO 14); antisense fUactfUGGAGAAfUGAGfUfUGG*fC*A (SEQ ID NO 13) (sense CCAACUCAUUCUCCAAGUC; antisense UACTUGGAGAAUGAGUUGGCA; 2'-F, DNA residues, phosphorothioate modifications; modified_base (1)..(19) (1,2,18,19)=2′-fluoro; modified_base (1)..(17) (1,2,9,13,14,17)=2′-fluoro; (1)..(21) (1,5,6,7,8,9,10,11,12,13,14,15,1,61,7,18,19,20, 21)=RNA; (2)..(4) (2,3,4)=DNA; modified_base (16)..(18) (16,17,18)=phosphorothioate (PS) backbone modification) | weakens the activity of the saRNA duplex to suppress cellular proliferation | little or no signs of degradation | increased off-target effects | weakens the activity of the saRNA duplex to suppress cellular proliferation |  |  |  |
| Rag1-40-32: saRNA duplex: sense fCfCAACUCAUUCUCCAAG*U*C (SEQ ID NO 16); antisense fUactfUGGAGAAfUGAGfUfUGG*fC*A (SEQ ID NO 13) (sense fCfCrArArCrUrCrArUrUrCrUrCrCrArArG*rU*rC; antisense fUdAdCdTfUrGrGrArGrArAfUrGrArGfUfUrGrG*fC*rA) | weak cellular proliferation inhibitory activity; also recorded: weakens the activity of the saRNA duplex to suppress cellular proliferation | little or no signs of degradation | increased off-target effects | weakens the activity of the saRNA duplex to suppress cellular proliferation | reduced activity; also recorded: attenuated activity | attenuated activity; also recorded: weak RNA activating activity |  |
| Rag1-40-33: saRNA duplex: sense CCAACUCAUUCUCCAAGUC (SEQ ID NO 17); antisense UactUGGAGAAUGAGUUGGCA (SEQ ID NO 18) (antisense rUdAdCdTrUrGrGrArGrArArUrGrArGrUrUrGrGrCrA; sense: unmodified RNA) | weak cellular proliferation inhibitory activity |  |  |  | reduced activity; also recorded: attenuated activity | attenuated activity; also recorded: weak RNA activating activity | mitigated or similar off-target effects |
| Rag1-40-34: saRNA duplex: sense CCAACUCAUUCUCCAAGUC (SEQ ID NO 17); antisense UacttggAGAAUGAGUUGGCA (SEQ ID NO 19) (antisense rUdAdCdTdTdGdGrArGrArArUrGrArGrUrUrGrGrCrA; sense: RNA, phosphodiester; further chemistry not fully specified) | weak cellular proliferation inhibitory activity |  |  |  | reduced activity; also recorded: attenuated activity | attenuated activity; also recorded: weak RNA activating activity | mitigated or similar off-target effects |
